According to patent US7618990B2, “Oxazolidone derivatives as PR modulators” (Wyeth, priority 2006, dated 2009):

Key:
[1] = tested on: alkaline phosphatase activity in T47D cells; test: Effects of progestins and antiprogestins on alkaline phosphatase activity in T47D cells (antagonist mode); type: cell-based; conditions: Homo sapiens, in the presence of 1 nM progesterone, read-out: T47D Alkaline Phosphatase Activity IC50 (nM) or % inhibition; for IC50: 24 h; for inhibition at 3 µM: % inhibition at 3000 nM
Protocol: (1) Effects of Progestins and Antiprogestins on Alkaline Phosphatase Activity in T47D Cells
PURPOSE: To identify progestins or antiprogestins by determining a compound's effect on alkaline phosphatase activity in T47D cells.
Culture Medium: • DMEM:F12 (1:1) (GIBCO, BRL) supplemented with 5% (v/v) charcoal stripped fetal bovine serum (not heat-inactivated), 100 U/mL penicillin, 100 μg/mL streptomycin, and 2 mM the GlutaMax™ reagent (GIBCO, BRL).
Alkaline Phosphatase Assay Buffer: • I. 0.1M Tris-HCl, pH 9.8, containing 0.2% the Triton® X-100 reagent • II. 0.1M Tris-HCl, pH 9.8, containing 4 mM p-nitrophenyl phosphate (Sigma). B. Cell Culture and Treatment:
Frozen T47D cells were thawed in a 37° C. water bath and diluted to 280,000 cells/mL in culture medium. To each well in a 96-well plate (Falcon, Becton Dickinson Labware), 180 μL of diluted cell suspension was added.
Twenty μL of reference or test compounds diluted in the culture medium was then added to each well. When testing for progestin antagonist activity, reference antiprogestins or test compounds were added in the presence of 1 nM progesterone. The cells were incubated at 37° C. in a 5% CO2/humidified atmosphere for 24 h.
NOTE: For high throughput screening, one concentration of each compound was tested at 0.3 μg/mL. Based on an average molecular weight of 300 g/mol for the compounds in the library, the concentration was approximately 1 μM. Subsequently, active compounds were tested in dose response assays to determine EC50 and IC50. C. Alkaline Phosphatase Enzyme Assay:
At the end of treatment, the medium was removed from the plate. Fifty μL of assay buffer I was added to each well. The plates were shaken in a titer plate shaker for 15 min. Then 150 μL of assay buffer II was added to each well. Optical density measurements were taken at 5 min intervals for 30 min at a test wavelength of 405 nm.
For reference and test compounds, a dose response curve was generated for dose (X-axis) vs. the rate of enzyme reaction (slope) (Y-axis). Square root-transformed data was used for analysis of variance and nonlinear dose response curve fitting for both agonist and antagonist modes. Huber weighting was used to down-weight the effects of outliers. EC50 or IC50 values were calculated from the retransformed values. JMP software (SAS Institute, Inc.) was used for both one-way analysis of variance and non-linear dose response analysis in both single dose and dose response studies.
Progesterone and trimegestone were reference progestins and RU486 was the reference antiprogestin. All reference compounds were run in full dose response curves and the EC50 and IC50 values were calculated.

| SMILES | melting point [°C] | IC50 [1] [nM] | also measured |
| --- | --- | --- | --- |
| CC[C@H]1COC(=O)N1c1nc(-c2ccc(Br)cc2)c(F)s1 [Example 11, (4S)-3-[4-(4-Bromophenyl)-5-fluoro-1,3-thiazol-2-yl]-4-ethyl-1,3-oxazolidin-2-one] | 105 to 107 | 120 |  |
| CC[C@H]1COC(=O)N1c1nc(-c2ccc(C#N)cc2)c(F)s1 [Example 12, 4-{2-[(4S)-4-Ethyl-2-oxo-1,3-oxazolidin-3-yl]-5-fluoro-1,3-thiazol-4-yl}benzonitrile] | 157 to 159 | 23.3 |  |
| CC[C@H]1COC(=O)N1c1nc(-c2ccc(Br)cc2)c(Cl)s1 [Example 13, (4S)-3-[4-(4-Bromophenyl)-5-chloro-1,3-thiazol-2-yl]-4-ethyl-1,3-oxazolidin-2-one] | 137 to 139 | 124 |  |
| CC[C@H]1COC(=O)N1c1nc(-c2ccc(C#N)cc2)c(Cl)s1 [Example 14, 4-{5-Chloro-2-[(4S)-4-ethyl-2-oxo-1,3-oxazolidin-3-yl]-1,3-thiazol-4-yl}benzonitrile] | 157 to 159 | 294 |  |
| CC[C@H]1COC(=O)N1c1nc(-c2ccc(C#N)cc2)c(C#N)s1 [Example 15, 4-(4-Cyanophenyl)-2-[(4S)-4-ethyl-2-oxo-1,3-oxazolidin-3-yl]-1,3-thiazole-5-carbonitrile] | 201 to 203 | 144 |  |
| C[C@@H]1COC(=O)N1c1nc(-c2cccc(Br)c2)cs1 [Example 16, (4R)-3-[4-(3-bromophenyl)-1,3-thiazol-2-yl]-4-methyl-1,3-oxazolidin-2-one] | 126 to 128 | 142 |  |
| C[C@@H]1COC(=O)N1c1nc(-c2cccc(C#N)c2)cs1 [Example 17, 3-{2-[(4R)-4-Methyl-2-oxo-1,3-oxazolidin-3-yl]-1,3-thiazol-4-yl}benzonitrile] | 187 to 189 |  | inhibition at 3 µM [1]: 84% |
| CCC[C@@H]1COC(=O)N1c1nc(-c2ccc(Br)cc2)cs1 [Example 20, (4R)-3-[4-(4-Bromophenyl)-1,3-thiazol-2-yl]-4-propyl-1,3-oxazolidin-2-one] | 114 to 116 | 70.2 |  |
| CCC[C@@H]1COC(=O)N1c1nc(-c2ccc(C#N)cc2)cs1 [Example 21, 4-{2-[(4R)-2-oxo-4-propyl-1,3-oxazolidin-3-yl]-1,3-thiazol-4-yl}benzonitrile] | 131 to 133 | 22.5 |  |
| CCC[C@H]1COC(=O)N1c1nc(-c2ccc(Br)cc2)cs1 [Example 22, (4S)-3-[4-(4-Bromophenyl)-1,3-thiazol-2-yl]-4-propyl-1,3-oxazolidin-2-one] | 116 to 118 | 64.3 |  |
| CC1(C)COC(=O)N1c1nc(-c2ccc(Cl)cc2Cl)cs1 [Example 118, 3-[4-(2,4-Dichlorophenyl)-1,3-thiazol-2-yl]-4,4-dimethyl-1,3-oxazolidin-2-one] |  |  | inhibition at 0.03 µM ([1]; % inhibition at 30 nM): 60% |
| CC1(C)COC(=O)N1c1nc(-c2ccc(OCc3ccccc3)cc2)cs1 [Example 125, 3-{4-[4-(Benzyloxy)phenyl]-1,3-thiazol-2-yl}-4,4-dimethyl-1,3-oxazolidin-2-one] |  |  | inhibition at 3 µM [1]: 80% |
| CC1(C)COC(=O)N1c1nc(-c2ccc(Oc3ccccc3)cc2)cs1 [Example 127, 4,4-Dimethyl-3-[4-(4-phenoxyphenyl)-1,3-thiazol-2-yl]-1,3-oxazolidin-2-one] |  |  | inhibition at 3 µM [1]: 87% |
| CC1(C)COC(=O)N1c1nc(-c2ccc(-c3ccccc3)cc2)cs1 [Example 128, 3-(4-Biphenyl-4-yl-1,3-thiazol-2-yl)-4,4-dimethyl-1,3-oxazolidin-2-one] |  |  | inhibition at 3 µM [1]: 47% |
| COC(=O)c1ccc(-c2nc(N3C(=O)OCC3(C)C)sc2Cl)cc1 [Example 130, Methyl 4-[5-chloro-2-(4,4-dimethyl-2-oxo-1,3-oxazolidin-3-yl)-1,3-thiazol-4-yl]benzoate] |  | 181 |  |
| O=C1OCCN1c1nc(-c2ccc(Cl)cc2)cs1 [Example 131, 3-[4-(4-Chlorophenyl)-1,3-thiazol-2-yl]-1,3-oxazolidin-2-one] |  | 41.1 |  |
| N#Cc1ccc(-c2csc(N3CCOC3=O)n2)cc1 [Example 132, 4-[2-(2-Oxo-1,3-oxazolidin-3-yl)-1,3-thiazol-4-yl]benzonitrile] |  | 37.6 |  |
| CC1(C)CO/C(=N\S(C)(=O)=O)N1c1nc(-c2ccc(C#N)cc2)cs1 [Example 136, N-{(2Z)-3-[4-(4-Cyanophenyl)-1,3-thiazol-2-yl]-4,4-dimethyl-1,3-oxazolidin-2-ylidene}methanesulfonamide] |  |  | inhibition at 3 µM [1]: 100% |

Further lines, with some results ahead:

| melting point [°C] | IC50 [1] [nM] | SMILES | also measured |
| --- | --- | --- | --- |
| 183 to 185 | 3.1 | CC1(C)COC(=O)N1c1nc(-c2ccc(C#N)cc2)cs1 [Example 6, 4-[2-(4,4-Dimethyl-2-oxo-1,3-oxazolidin-3-yl)-1,3-thiazol-4-yl]benzonitrile] |  |
| 142 to 144 | 30 | CC1(C)COC(=O)N1c1nc(-c2cccc(Br)c2)cs1 [Example 18, 3-[4-(3-Bromophenyl)-1,3-thiazol-2-yl]-4,4-dimethyl-1,3-oxazolidin-2-one] |  |
| 145 to 147 | 0.45 | CCC1(CC)COC(=O)N1c1nc(-c2ccc(C#N)cc2)cs1 [Example 19, 4-[2-(4,4-Diethyl-2-oxo-1,3-oxazolidin-3-yl)-1,3-thiazol-4-yl]benzonitrile] |  |
|  | 48 | CC1(C)COC(=O)N1c1nc(-c2ccc(Cl)c(Cl)c2)cs1 [Example 119, 3-[4-(3,4-Dichlorophenyl)-1,3-thiazol-2-yl]-4,4-dimethyl-1,3-oxazolidin-2-one] |  |
|  | 247 | CC1(C)COC(=O)N1c1nc(-c2ccccc2)cs1 [Example 120, 4,4-Dimethyl-3-(4-phenyl-1,3-thiazol-2-yl)-1,3-oxazolidin-2-one] |  |
|  | 110 | Cc1ccc(-c2csc(N3C(=O)OCC3(C)C)n2)cc1 [Example 121, 4,4-Dimethyl-3-[4-(4-methylphenyl)-1,3-thiazol-2-yl]-1,3-oxazolidin-2-one] |  |
|  | 557 | CC1(C)COC(=O)N1c1nc(-c2ccc3ccccc3c2)cs1 [Example 122, 4,4-Dimethyl-3-[4-(2-naphthyl)-1,3-thiazol-2-yl]-1,3-oxazolidin-2-one] |  |
|  | 1420 | CC1(C)COC(=O)N1c1nc(-c2ccccc2[N+](=O)[O-])cs1 [Example 123, 4,4-Dimethyl-3-[4-(2-nitrophenyl)-1,3-thiazol-2-yl]-1,3-oxazolidin-2-one] |  |
|  | 59.7 | CC1(C)COC(=O)N1c1nc(-c2cccc([N+](=O)[O-])c2)cs1 [Example 124, 4,4-Dimethyl-3-[4-(3-nitrophenyl)-1,3-thiazol-2-yl]-1,3-oxazolidin-2-one] |  |
|  | 33.4 | Cc1cc(-c2csc(N3C(=O)OCC3(C)C)n2)ccc1F [Example 126, 3-[4-(4-Fluoro-3-methylphenyl)-1,3-thiazol-2-yl]-4,4-dimethyl-1,3-oxazolidin-2-one] |  |
|  | 20.3 | COC(=O)c1ccc(-c2csc(N3C(=O)OCC3(C)C)n2)cc1 [Example 129, Methyl 4-[2-(4,4-dimethyl-2-oxo-1,3-oxazolidin-3-yl)-1,3-thiazol-4-yl]benzoate] |  |
|  | 69.6 | Cn1cc(-c2csc(N3C(=O)OCC3(C)C)n2)cc1C#N [Example 133, 4-[2-(4,4-Dimethyl-2-oxo-1,3-oxazolidin-3-yl)-1,3-thiazol-4-yl]-1-methyl-1H-pyrrole-2-carbonitrile] |  |
|  | 284 | Cn1cc(C#N)cc1-c1csc(N2C(=O)OCC2(C)C)n1 [Example 134, 5-[2-(4,4-Dimethyl-2-oxo-1,3-oxazolidin-3-yl)-1,3-thiazol-4-yl]-1-methyl-1H-pyrrole-3-carbonitrile] |  |
|  | 64.4 | CC1(C)CO/C(=N\C#N)N1c1nc(-c2ccc(C#N)cc2)cs1 [Example 135, {(2Z)-3-[4-(4-cyanophenyl)-1,3-thiazol-2-yl]-4,4-dimethyl-1,3-oxazolidin-2-ylidene}cyanamide] |  |
|  | 10.8 | CC(=O)/N=C1\OCC(C)(C)N1c1nc(-c2ccc(C#N)cc2)cs1 [Example 137, N-{(2Z)-3-[4-(4-Cyanophenyl)-1,3-thiazol-2-yl]-4,4-dimethyl-1,3-oxazolidin-2-ylidene}acetamide] |  |
